Read-outs that look alike come from different tables or passages of the source. Marks after values point to notes of the source that are not given here.
Tests used:
[1] = Comparison of preparation methods: particle size; assay type: physicochemical
Description: (§1) One embodiment of the present invention was compared to a control method for producing pharmaceutical formulations. The control method used in the following examples is disclosed by Ganter in U.S. Pat. No. 5,635,206, herein incorporated by reference, at Example 1, except that the percentage of water used was 5% and 0%. To exemplar drugs which are poorly water soluble were used: glyburide and benzocaine.
(§2) The following tables summarize the protocol used and the results.

[2] = Comparison of preparation methods: absorbance in the aqueous phase (incorporation with the lipid); assay type: physicochemical
Description: as §1, §2
Some embodiments of the present invention have one or more of the aforementioned advantages.

[3] = Comparison of preparation methods: texture of product; assay type: physicochemical; conditions: 12% drug, 63% lecithin (DMPC)
Description: as §1, §2

[4] = Pharmacokinetics of halofantrine enantiomers after oral gavage of proliposomal or control suspension; assay type: in vivo, Sprague-Dawley rats; conditions: 7 mg/kg oral gavage, rats; for AUC: AUC0-24, mean±SD; for Cmax / Tmax: mean±SD
Method: The pharmacokinetic parameters of the enteric coated proliposomal formulation of halofantrine were evaluated as follows. The proliposomal product was prepared as a suspension in 0.78% methylcellulose. A non-liposomal suspension formulation (control) was prepared by dispersing halofantrine powder in 1% methylcellulose. Sprague-Dawley rats were cannulated at the right jugular vein under halothane anesthesia. After an overnight rest, the rats were given 7 mg/kg of a halofantrine suspension as either the proliposomal (7 rats) or control (6 rats) formulation by oral gavage. Serial blood samples were obtained from the cannula until 48 h post-dose. A stereospecific HPLC assay was used to measure plasma concentration of halofantrine enantiomers. Noncompartmental pharmacokinetic methods were used to determine AUC0-24, Cmax and tmax. Student's unpaired t-test was used to assess significance of differences.

[5] = Control: halofantrine powder in 1% methylcellulose
[6] = Liposome: enteric coated proliposomal formulation

Row | SMILES | Particle Size ([1]; Applicant's Method) [μm] | Particle Size ([1]; Control Method With 0% Water) [μm] | Particle Size ([1]; Control Method With 5% Water) [μm] | Absorbance ([2]; Applicant's Method) | Absorbance ([2]; Control Method With 0% Water) | Absorbance ([2]; Control Method With 5% Water) | Texture ([3]; Applicant's Method) | Texture ([3]; Control Method With 0% Water) | Texture ([3]; Control Method With 5% Water) | further results
1 | COc1ccc(Cl)cc1C(=O)NCCc1ccc(S(=O)(=O)NC(=O)NC2CCCCC2)cc1 [Glyburide, glyburide] | 8.638 | 5.978 | 2.544 | 1.9446 | 3.9141 | 3.8177 | Powder | Milky | Milky | –
2 | CCCCN(CCCC)CCC(O)c1cc2c(Cl)cc(Cl)cc2c2cc(C(F)(F)F)ccc12 (single isomer, unassigned; (+)) [(+)-HF, halofantrine] | – | – | – | – | – | – | – | – | – | AUC [4, 5]: 5.2 ± 0.81^b μg × h/mL; Cmax [4, 5]: 391 ± 59.2^b ng/mL; Tmax [4, 5]: 7.0 ± 2.3 h; AUC ([4]; Liposome: enteric coated proliposomal formulation in 0.78% methylcellulose): 7.7 ± 1.8^a,b μg × h/mL; Cmax [4, 6]: 722 ± 170^a,b ng/mL; Tmax [4, 6]: 4.1 ± 2.3 h
3 | CCCCN(CCCC)CCC(O)c1cc2c(Cl)cc(Cl)cc2c2cc(C(F)(F)F)ccc12 (single isomer, unassigned; (-)) [(−)-HF, halofantrine] | – | – | – | – | – | – | – | – | – | AUC ([4]; Sprague-Dawley, rat, plasma, po, 7 mg/kg, Control: halofantrine powder in 1% methylcellulose, read-out: AUC): 1900 ± 530 ng·h/mL; Cmax ([4]; Sprague-Dawley, rat, plasma, po, 7 mg/kg, Control: halofantrine powder in 1% methylcellulose, read-out: Cmax): 196 ± 42.3 ng/mL; Tmax ([4]; Sprague-Dawley, rat, plasma, po, 7 mg/kg, Control: halofantrine powder in 1% methylcellulose, read-out: Tmax): 4.6 ± 2.1 h; AUC ([4]; Sprague-Dawley, rat, plasma, po, 7 mg/kg, Liposome: enteric coated proliposomal formulation in 0.78% methylcellulose, read-out: AUC): 2600 ± 660 ng·h/mL; Cmax ([4]; Sprague-Dawley, rat, plasma, po, 7 mg/kg, Liposome: enteric coated proliposomal formulation, read-out: Cmax): 360 ± 80.5 ng/mL; Tmax ([4]; Sprague-Dawley, rat, plasma, po, 7 mg/kg, Liposome: enteric coated proliposomal formulation, read-out: Tmax): 4 ± 1.3 h
4 | CCOC(=O)c1ccc(N)cc1 [Benzocaine, benzocaine] | 9.163 | 3.830 | 1.190 | 3.7377 | 3.6130 | 3.6030 | Powder | Clear Solution | Clear Solution | –

Source: patent US8658202B2, “Coated drug delivery formulations” (Western University of Health Sciences, priority 2001, dated 2014)
